One data set deals with hypertensive patients. Kind of data set: Study 2: dose-response of oral BH4 on blood pressure and heart rate, after 2-week vitamin C run-in. The format is in vivo, human. On the procedure:
Prior studies have used parenteral infusion of BH4 or a single oral dose; thus it was not known whether long-term oral BH4 over a period of days to weeks would result in a sustained improvement in endothelial dysfunction. […] Two studies were conducted to investigate the duration of action of oral BH4 and the response of hypertensive subjects to different doses of BH4. […] Patients were continued on their current anti-hypertensive therapy which remained unchanged. […] BH4 powder was obtained from Schircks Laboratories (Jona, Switzerland). BH4 when administered with vitamin C was compounded with vitamin C at a ratio of 1 mg of vitamin C/1 mg BH4 into appropriate sized capsules. Subjects were advised to keep the pills in a freezer or refrigerator. For both study 1 and study 2, the primary end point after statistical analysis was a reduction of systolic, mean and diastolic BP during BH4 therapy. Secondary end points included improvement of endothelial function as FMD. Linear mixed effects models for repeated measures data were used to analyze change in BP from baseline to end of treatment period and differences in change between 100 mg and 200 mg dose groups. A quadratic term for week was included in the model to account for non-linear trends over the treatment period. Dose, week and week squared were the main effect terms in the model; dose by week and dose by week squared were the interaction terms in the model. Significant interaction terms indicate a difference in the pattern of change between the two dose groups. FMD data was analyzed using the two-tailed student t-test. […] Of the 20 subjects who qualified for participation, 4 were excluded during the run-in phase because of inability to return for follow-up appointments. There were 6 male subjects, mean age 59.5±8.3 years. Eight subjects received 200 mg b.i.d (twice daily) of oral BH4 and 8 received 100 mg b.i.d. of oral BH4. […] Because BH4 was compounded with vitamin C in a 1:1 ratio, all subjects received vitamin C, at their assigned BH4 dose, twice a day during the first 2-week period. After this 2-week run-in period, subjects received BH4 only at their assigned dosage for the next 4 weeks. Weekly heart rate and BP measurements were made during the run-in period and treatment period. Mean blood pressure was calculated as: (SBP+2×DBP)/3. BH4 was then stopped and follow-up was performed at 1 and 4 weeks after discontinuation where BP and heart rate measurements were made. Routine chemistries and LFT's were drawn prior to initiation of medication, at the end of BH4 therapy and one month after discontinuation of BH4.

The next data set relates to brachial artery. The experiment in a line: Study 2: brachial artery flow-mediated and nitroglycerin-mediated vasodilation. The format is in vivo, human. The method, then:
Brachial artery endothelium-dependent and -independent function was measured using ultrasound, at baseline, after 8 weeks of BH4 treatment, and 1 week after discontinuation of therapy. The technique was carried out as described in Prasad et al., Circulation, 2000. 101(20): p. 2349-54. Briefly, using an 11 MHz high resolution ultrasound transducer (Acuson Inc) in a temperature-controlled room, brachial diameter was measured above the antecubital fossa in the non-dominant arm. Flow-mediated vasodilation (FMD) was measured by inflating a BP cuff on the forearm to >200 mm Hg for 5 minutes, deflating rapidly, and measuring brachial diameter at 1 minute after onset of hyperemia. For all measurements three diameters were measured on three separate end-diastolic frames and averaged. To obtain the maximal brachial artery dilation that represents FMD the following equation was used: (average diameter with hyperemia−average baseline diameter)÷average baseline diameter X 100. To measure the endothelium-independent vasodilator response, subjects were given sublingual nitroglycerin 0.4 mg and the brachial diameter was measured as above after 5 minutes. To obtain endothelium-independent vasodilation the following equation was used: (average diameter post nitroglycerin-average baseline diameter)÷average baseline diameter X 100. For both study 1 and study 2, the primary end point after statistical analysis was a reduction of systolic, mean and diastolic BP during BH4 therapy. Secondary end points included improvement of endothelial function as FMD. Linear mixed effects models for repeated measures data were used to analyze change in BP from baseline to end of treatment period and differences in change between 100 mg and 200 mg dose groups. A quadratic term for week was included in the model to account for non-linear trends over the treatment period. Dose, week and week squared were the main effect terms in the model; dose by week and dose by week squared were the interaction terms in the model. Significant interaction terms indicate a difference in the pattern of change between the two dose groups. FMD data was analyzed using the two-tailed student t-test. […] In study 2, brachial artery endothelium-dependent and independent function was measured, as described above, at the end of the 2-week vitamin C run-in period, at the end of 4 weeks of oral BH4 therapy, and 4 weeks after discontinuation of BH4.

The subject of a further data set is coronary vessel. As to conditions: in vivo; cited from earlier work.

Regarding `C[C@H](O)[C@H](O)[C@H]1CNc2nc(N)[nH]c(=O)c2N1` [BH4, tetrahydrobiopterin], in the data set on hypertensive patients (Study 2, 100 mg b.i.d. of BH4), the “change in BP” value was “No statistically significant change”. In addition, the “decrease in systolic BP” value in the data set on hypertensive patients (Study 2, 200 mg b.i.d. oral BH4, 4 weeks, p=0.03) is given as “significant decrease”. Besides, in the data set with hypertensive patients (Study 2, 200 mg b.i.d. oral BH4, 4 weeks, p=0.04 by linear trend analysis), the “decrease in mean BP” value is reported as “significant decrease”. Further, in the data set with hypertensive patients (Study 2, 200 mg b.i.d., 4 weeks after discontinuation), the “BP after discontinuation of BH4” value is on record as “returned to baseline levels”. Also, the “BP after termination of therapy” value in the data set with hypertensive patients (Study 2, 200 mg b.i.d., a week after termination) was “remained lower”. In addition, in the data set on hypertensive patients (Study 2, 200 mg b.i.d., after 3 weeks, p=0.04), the “systolic BP mean lowering at nadir” value was determined as 16 mmHg. Moreover, the “Mean BP after one week” value in the data set with hypertensive patients (Study 2, 200 mg b.i.d., p=0.02) was “significantly lower”. In the data set on hypertensive patients (Study 2, 200 mg b.i.d., p=0.08), the “decrease in diastolic BP” value was “did not reach statistical significance”. Moreover, in the data set with hypertensive patients (Study 2, either group, 100 mg or 200 mg b.i.d.), the “alteration in heart rate with BH4” value was “no significant alteration”. Also, the “dose at which the BP-lowering effect was observed” value in the data set with hypertensive patients (oral BH4, free of any changes in heart rate) is on record as at least 200 mg b.i.d. The “time until reduction in BP was evident” value with hypertensive patients (oral BH4 therapy) is at most 1 week. For the same compound, the FMD in the data set on brachial artery (Study 2, 100 mg b.i.d., after therapy, 5.3±2.5% before, p=0.55, no significant change) is recorded as 6.2±3.5%; in the data set on brachial artery (Study 2, 200 mg b.i.d., after 4 weeks of therapy, 3.7±3% at start, p=0.016, n=7), 7.1±4.9%; in the data set with brachial artery (Study 2, 200 mg b.i.d., one month after discontinuation, p=0.6 compared to baseline), 3.2±1.1%. For the same compound, the “change in nitroglycerin-mediated, endothelium-independent vasodilation” value in the data set on brachial artery (Study 2, either group) is listed as “no significant change”. Further, the coronary vessel flow result with coronary vessel is “increased”.

The values above are taken from US20090018136A1, “METHODS AND COMPOSITIONS FOR THE TREATMENT OF VASCULAR DISEASE” (priority 2005, published 2009).
